Measurements taken from PMC11859423, “Fluorescent Probes to Image the KCa3.1 Channel in Tumor Cells” (Pharmaceutics, 2025).
Entries after “also recorded” stand apart in the source; their conditions may differ.

Key:
[1] = logP by HPLC retention time correlation; assay type: physicochemical; conditions: standardized reversed phase HPLC system
Experimental: The logP values were recorded using HPLC analysis. Thus, the retention time of the test compound in a standardized reversed phase HPLC system is correlated with the retention times of compounds with known logP values.
In addition to the logD7.4 values, the logP values of the fluorescent probes were recorded by HPLC, i.e., after calibration of the method, the retention times were correlated with the logP values or the compounds [33]. […] Fluorescein-labeled ligands 21a and 21b are considerably more polar than the corresponding bodipy-labeled senicapoc derivatives.

[2] = molecular target: T1, KCa3.1 channel in A549-3R cells (Homo sapiens, UniProt O15554); assay: Blocking of staining by preincubation with senicapoc, fixed and living A549-3R cells (Protocols 3 and 4); assay type: cell-based; conditions: 30 µM senicapoc, 5 min, 4 °C
T1 construct: the non-small cell lung cancer cell line A549-3R with a high expression of the KCa3.1 channel was employed; endogenous in cells; host or cells: A549-3R cells
Experimental: After fixation of the cells (Section 2.10.2), 300 µL of a 30 µM solution of senicapoc blocking solution was added to the glass bottom dish. The glass bottom dish was incubated for 5 min at 4 °C. After incubation, the solution was removed and a mixture of 150 µL of 60 µM senicapoc solution and 150 µL of 20 µM staining solution were added to the glass bottom dish. The cells were incubated for 10 min at 4 °C in a dark chamber. Subsequently, the cells were washed five times with PBS and then used for fluorescence microscopy.
The cells were used without fixation. After incubating the cells for 24 h (Section 2.10.1), the medium was removed, and the cells were washed three times with 1 mL of PBS. Subsequently, the cells were stained as described in Protocol 3.
In order to show the specificity of labeling KCa3.1 channels by the fluorescent probe 10b, fixed and living cells were preincubated with 30 µM senicapoc (3) for 5 min at 4 °C. […] The complete blockade of the punctate staining pattern confirms that the KCa3.1 channel was labeled with probe 10b.

[3] = molecular target: T1, KCa3.1 channel in A549-3R cells; assay: Whole-cell patch clamp on A549-3R cells after channel opening with 1-EBIO; assay type: cell-based
Experimental: Bath solution: 140 mM NaCl, 5 mM KCl, 10 mM HEPES, 1 mM MgCl2 and 1 mM CaCl2 in an aqueous solution; pH = 7.4 with NaOH.
Pipette solution: 140 mM KCl, 10 mM HEPES, 1.3 mM EGTA, 1 mM MgCl2 and 1.217 mM CaCl2 in an aqueous solution; pH = 7.4 with NaOH; free Ca^2+ concentration of 1 µM.
1-EBIO solution: 100 mM stock solution of 1-ethylbenzimidazolone (1-EBIO) in DMSO was diluted with the bath solution to 50 µM.
Test solution: A 10 mM stock solution of imaging compound 10b in DMSO was diluted with the bath solution to 1 µM.
Senicapoc solution: 10 mM stock solution of senicapoc (3) in DMSO was diluted with bath solution to 1 µM.
Whole-cell patch clamp experiments were conducted at room temperature using borosilicate glass pipettes (GC150TF-10, Harvard Ltd., Boston, MA, USA) connected to an EPC-10 amplifier (HEKA Electronics, Lambrecht, Germany). […] Current density was calculated by dividing the current amplitude determined at the end of the depolarization voltage ramp to +60 mV by the membrane capacitance obtained from the slow capacitance compensation. The calculated free Ca^2+ concentration of the pipette solution was 1 µmol/L to obtain full activation of the KCa channels during the patch clamp experiments. […] A multi-barreled application pipette with a tip diameter of ~100 µm was used for test solution applications close to the recorded cell. […]

[4] = molecular target: T1, KCa3.1 channel in A549-3R cells; assay: Staining of permeabilized A549-3R cells (Protocol 5); assay type: cell-based
Experimental: After fixation of the cells (Section 2.10.2), 1 mL of permeabilization solution was added to the glass bottom dish. The cells were incubated for 30 min at 4 °C and afterwards washed three times with PBS. Subsequently, Protocol 1 was performed.
The specificity of the bodipy-labeled senicapoc derivative 10b was further analyzed via conducting co-staining experiments with antibodies. For staining with antibodies, A549-3R cells had to be permeabilized with saponin, since the antibody binds at the intracellular part of the ion channel only after entering the cell. […] For antibody-based immunofluorescence staining of the KCa3.1 channels of permeabilized A549-3R cells, various concentrations of the primary and secondary antibody were tested. Optimal images were obtained with a dilution of 1:300 for the primary antibody and 1:500 for the secondary antibody (see Figure S13, Supplementary Materials). The images obtained by immunofluorescence staining were analyzed as described above for the images with fluorescent probe 10b. This analysis led to a FWHM of 4.80 ± 0.83 pixels and a density of 1.75 ± 0.19 KCa3.1 channels/µm^2. […]

chromatographic logP [1]: 5.8
density of labeled KCa3.1 channels ([4]; permeabilized A549-3R cells): 1.15 ion channels/µm^2
staining pattern of permeabilized A549-3R cells ([4]; saponin permeabilization, Protocol 5): expected punctate staining pattern
SMILES: CCC1=C(C)C2=C(c3ccc(OCCOCCn4cc(COc5ccc(C(C(N)=O)(c6ccccc6)c6ccc(F)cc6)cc5)nn4)cc3)c3c(C)c(CC)c(C)n3[B-](F)(OC)[N+]2=C1C (stereo not drawn) [10b, 2-{4-[(1-{2-[4-(2,6-Diethyl-4-fluoro-4-methoxy-1,3,5,7-tetramethyl-4-bora-3a,4a-diaza-s-indacen-8-yl)phenoxy]ethoxyethyl}-1,2,3-triazol-4-yl)methoxy]phenyl}-2-(4-flluorophenyl)-2-phenylacetamide]
staining pattern after preincubation with senicapoc [2]: did not lead to a punctate staining pattern
inhibitory activity compared with senicapoc ([3]; 1 µM each, channel opened with 1-EBIO): only slightly lower than the inhibitory activity of senicapoc
inhibition of the KCa3.1 ion channel current ([3]; 1 µM, channel opened with 50 µM 1-EBIO, whole A549-3R cells): inhibited the ion channel considerably; also recorded: inhibited the ion current
